For series [1] the following is noted: Crystal; DTA.
Series [2] is described as follows: Molar enthalpy of transition or fusion. As to conditions: Crystal; DSC.

± gives the expanded uncertainty stated by the source.

Take `Cn1cc([N+](=O)[O-])cn1` [1-methyl-4-nitropyrazole]: the Normal melting temperature in series [1] is 92.00 ± 1.1 °C. The “Molar enthalpy of transition or fusion” value in series [2] is 2.36 ± 0.112 kcal/mol.

The values are drawn from the NIST ThermoML archive (doi:10.1016/j.fluid.2018.05.023).
